Experimental findings from ChEMBL document CHEMBL1151580, “Synthesis and antibacterial activity of some C-3-lactonyl substituted cephalosporins” (1993) are described below.

One assay has as its system Proteus mirabilis. As to the kind of experiment: Minimum inhibitory concentration required for antibacterial activity against Pr. mirabilis C977. It counts as functional.
Another assay relates to Enterococcus faecalis. Nature of the assay: Minimum inhibitory concentration required for antibacterial activity against Ent. faecalis I. The assay is classed as functional.
Another assay has as its system Klebsiella pneumoniae. Nature of the assay: Minimum inhibitory concentration required for antibacterial activity against Klebsiella pneumoniae T767. It counts as functional.
Assay [1] concerns Staphylococcus epidermidis. As to the kind of experiment: Minimum inhibitory concentration required for antibacterial activity against Staphylococcus epidermidis PHLN 20. The assay is classed as functional.
The subject of assay [2] is Escherichia coli. Nature of the assay: Minimum inhibitory concentration required for antibacterial activity against Escherichia coli JT425. It counts as functional.
A further assay deals with Streptococcus pyogenes. As to the kind of experiment: Minimum inhibitory concentration required for antibacterial activity against Streptococcus pyogenes CN 10. It counts as functional.
Another assay deals with Streptococcus agalactiae. As to the kind of experiment: Minimum inhibitory concentration required for antibacterial activity against Streptococcus agalactiae 2798. It counts as functional.
Assay [3] has as its system Escherichia coli. As to the kind of experiment: Minimum inhibitory concentration required for antibacterial activity against Escherichia coli ESS. The assay is classed as functional.
Assay [4] concerns Escherichia coli. Nature of the assay: Minimum inhibitory concentration required for antibacterial activity against Escherichia coli 10418. It counts as functional.
The test system of a further assay is Moraxella catarrhalis. As to the kind of experiment: Minimum inhibitory concentration required for antibacterial activity against Moraxella catarrhalis Ravasio. The assay is classed as functional.
For assay [5], the system named is Streptococcus pneumoniae. Nature of the assay: Minimum inhibitory concentration required for antibacterial activity against Streptococcus pneumoniae PU 7. The assay is classed as functional.
Assay [6] concerns Staphylococcus aureus. As to the kind of experiment: Minimum inhibitory concentration required for antibacterial activity against Staphylococcus aureus MB9. It counts as functional.
Assay [7] deals with Haemophilus influenzae. Nature of the assay: Minimum inhibitory concentration required for antibacterial activity against Haemophilus influenzae Q1. The assay is classed as functional.
In assay [8] the test system is Streptococcus pneumoniae. As to the kind of experiment: Minimum inhibitory concentration required for antibacterial activity against Streptococcus pneumoniae 1761. It counts as functional.
For the next assay, the system named is Morganella morganii. As to the kind of experiment: Minimum inhibitory concentration required for antibacterial activity against Morg. morganii T361. It counts as functional.
The subject of assay [9] is Escherichia coli. As to the kind of experiment: Minimum inhibitory concentration required for antibacterial activity against Escherichia coli 1077. The assay is classed as functional.
The next assay relates to Pseudomonas aeruginosa. Nature of the assay: Minimum inhibitory concentration required for antibacterial activity against Pseudomonas aeruginosa 10662. The assay is classed as functional.
Assay [10] concerns Haemophilus influenzae. As to the kind of experiment: Minimum inhibitory concentration required for antibacterial activity against Haemophilus influenzae NEMC1. The assay is classed as functional.
Assay [11] has as its system Staphylococcus aureus. As to the kind of experiment: Minimum inhibitory concentration required for antibacterial activity against Staphylococcus aureus Oxford.
Assay [12] concerns Staphylococcus aureus. Nature of the assay: Minimum inhibitory concentration required for antibacterial activity against Staphylococcus aureus Russell.
The subject of assay [13] is Staphylococcus aureus. As to the kind of experiment: Minimum inhibitory concentration required for antibacterial activity against Staphylococcus aureus Russell. It counts as functional.
The test system of assay [14] is Staphylococcus aureus. Nature of the assay: Minimum inhibitory concentration required for antibacterial activity against Staphylococcus aureus Oxford. It counts as functional.

Structures are written as SMILES. Where only a bound is given, the exact number is not on record here.

Take `CO/N=C(\C(=O)N[C@@H]1C(=O)N2C(C(=O)[O-])=C(/C=C3\C=C(C)C(=O)O3)CS[C@H]12)c1csc(N)n1.[Na+]`: the MIC with Proteus mirabilis was 0.06 µg/mL; in the assay on Enterococcus faecalis it was 16 µg/mL; against Klebsiella pneumoniae, 1 µg/mL; in assay [1] it was 2 µg/mL; with Escherichia coli [2] it was 2 µg/mL; against Streptococcus pyogenes, under 0.03 µg/mL. In addition, the MIC with Streptococcus agalactiae was under 0.03 µg/mL; in the assay with Escherichia coli [3], under 0.03 µg/mL; against Escherichia coli [4], under 0.03 µg/mL; against Moraxella catarrhalis it was 8 µg/mL; against Streptococcus pneumoniae [5], 0.5 µg/mL; against Staphylococcus aureus [6], 4 µg/mL. Moreover, the MIC against Haemophilus influenzae [7] was under 0.03 µg/mL; in the assay on Streptococcus pneumoniae [8], under 0.03 µg/mL; in the assay on Morganella morganii, under 0.06 µg/mL; in the assay with Escherichia coli [9], 1 µg/mL; against Pseudomonas aeruginosa it was 32 µg/mL; in the assay on Haemophilus influenzae [10], under 0.03 µg/mL. Also, the MIC in the assay with Staphylococcus aureus [11] stood at 1 µg/mL; with Staphylococcus aureus [12], 2 µg/mL.
Take `CO/N=C(\C(=O)N[C@@H]1C(=O)N2C(C(=O)[O-])=C(C3CCC(=O)O3)CS[C@H]12)c1csc(N)n1.[Na+]` (stereo not given in full): the MIC is under 0.03 µg/mL against Proteus mirabilis; over 64 µg/mL against Enterococcus faecalis; 1 µg/mL against Staphylococcus aureus [13]; 0.06 µg/mL in the assay with Klebsiella pneumoniae; 0.5 µg/mL in assay [1]; 1 µg/mL in the assay on Escherichia coli [2]. For the same compound, the MIC is under 0.03 µg/mL against Streptococcus pyogenes; 0.06 µg/mL with Streptococcus agalactiae; under 0.03 µg/mL in the assay on Escherichia coli [3]; under 0.03 µg/mL against Escherichia coli [4]; 2 µg/mL in the assay with Moraxella catarrhalis; 2 µg/mL in the assay on Streptococcus pneumoniae [5]. Moreover, the MIC with Staphylococcus aureus [6] is 2 µg/mL; with Haemophilus influenzae [7], 0.06 µg/mL; with Staphylococcus aureus [14], 1 µg/mL; against Streptococcus pneumoniae [8], under 0.03 µg/mL; against Morganella morganii, 0.06 µg/mL; in the assay on Escherichia coli [9] it was 0.12 µg/mL. Besides, the MIC was 64 µg/mL against Pseudomonas aeruginosa and under 0.03 µg/mL in the assay with Haemophilus influenzae [10].
`CO/N=C(\C(=O)N[C@@H]1C(=O)N2C(C(=O)[O-])=C(COC(C)=O)CS[C@H]12)c1csc(N)n1.[Na+]` [CEFOTAXIME SODIUM]: the MIC in the assay on Proteus mirabilis was under 0.03 µg/mL; against Enterococcus faecalis, over 64 µg/mL; against Staphylococcus aureus [13], 2 µg/mL; in the assay with Klebsiella pneumoniae, 0.06 µg/mL; in assay [1] it was 1 µg/mL; against Escherichia coli [2], 0.5 µg/mL. Moreover, the MIC was under 0.03 µg/mL against Streptococcus pyogenes; 0.12 µg/mL in the assay with Streptococcus agalactiae; under 0.03 µg/mL in the assay with Escherichia coli [3]; under 0.03 µg/mL against Escherichia coli [4]; 0.25 µg/mL against Moraxella catarrhalis; 2 µg/mL in the assay with Streptococcus pneumoniae [5]. The MIC against Staphylococcus aureus [6] is 4 µg/mL; against Haemophilus influenzae [7] it was under 0.03 µg/mL; against Staphylococcus aureus [14] it was 2 µg/mL; against Streptococcus pneumoniae [8], under 0.03 µg/mL; against Morganella morganii, 2 µg/mL; in the assay with Escherichia coli [9] it was under 0.03 µg/mL. Besides, the MIC is 16 µg/mL with Pseudomonas aeruginosa and under 0.03 µg/mL in the assay on Haemophilus influenzae [10].
Turning to `CO/N=C(\C(=O)N[C@@H]1C(=O)N2C(C(=O)[O-])=C(CC3C=CC(=O)O3)CS[C@H]12)c1csc(N)n1.[Na+]` (stereo not given in full), the MIC in the assay on Proteus mirabilis was 0.25 µg/mL; against Enterococcus faecalis it was over 64 µg/mL; against Staphylococcus aureus [13] it was 1 µg/mL; against Klebsiella pneumoniae, 0.5 µg/mL; in [1] it was 4 µg/mL; with Escherichia coli [2], 4 µg/mL. The MIC is under 0.03 µg/mL against Streptococcus pyogenes; 0.06 µg/mL in the assay with Streptococcus agalactiae; under 0.03 µg/mL with Escherichia coli [3]; 0.06 µg/mL in the assay on Escherichia coli [4]; 0.5 µg/mL against Moraxella catarrhalis; 4 µg/mL in the assay with Streptococcus pneumoniae [5]. The MIC is 4 µg/mL against Staphylococcus aureus [6]; 0.06 µg/mL in the assay on Haemophilus influenzae [7]; 1 µg/mL against Staphylococcus aureus [14]; under 0.03 µg/mL against Streptococcus pneumoniae [8]; 0.5 µg/mL in the assay on Morganella morganii; 0.5 µg/mL in the assay with Escherichia coli [9]. Moreover, the figures for the MIC with Pseudomonas aeruginosa and with Haemophilus influenzae [10] were over 64 µg/mL and under 0.03 µg/mL, respectively.
